{"source": "patent US20190119649A1", "about": "“METHODS FOR GENERATING AUGMENTED STEM CELL-DERIVED BETA CELLS AND USES THEREOF” (President and Fellows of Harvard College, priority 2014, published 2019)", "key": {"SC-β cells [1]": {"system": "SC-β cells", "assay": "Glucose stimulated insulin secretion stimulation index of SC-β cells", "assay_type": "cell-based, human", "conditions": "R428 together with antioxidant N-acetylcysteine; FIG. 1B and 1C", "description": "Stimulation index=[insulin@20 mM glucose]/[insulin@2 mM glucose]. Relative Stim Index=Stim Index/Stim Index of Control."}, "SC-β cells [2]": {"system": "SC-β cells", "conditions": "R428 together with antioxidant N-acetylcysteine; FIG. 1A", "description": "FIG. 2C is a schematic depicting an overview of an exemplary method for generating augmented SC-β cells in accordance with the present invention.\nIn accordance with aspects of the present invention, the period of time comprises between 7 days and 21 days. […] In accordance with aspects of the present invention, the period of time comprises 3 days, 4 days, 5 days, 6 days, 7 days, 8 days, 9 days, 10 days, 11 days, 12 days, 13 days, 14 days, 15 days, 16 days, 17 days, 18 days, 19 days, 20 days, 21 days, 22 days, 23 days, 24 days, 25 days, 26 days, 27 days, 28 days, 29 days, or 30 days or longer."}}, "data": [{"molecule": "Nc1nc(Nc2ccc3c(c2)CC[C@@H](N2CCCC2)CC3)nn1-c1cc2c(nn1)-c1ccccc1CCC2", "note": "[Compound R428]", "values": [{"measurement": "Stimulation index ([insulin@20 mM glucose]/[insulin@2 mM glucose]) relative to SC-β cells generated without AXL inhibitor", "setting": "SC-β cells [1]", "value": "greater stimulation index"}, {"measurement": "MAFA gene expression relative to SC-β cells generated without AXL inhibitor and antioxidant", "setting": "SC-β cells [2]", "value": "increased MAFA gene expression"}]}]}
